Laboratory results reported in PMC12434519.
Read-outs that look alike come from different tables or passages of the source.

How the values were obtained:
SARS-CoV-2 = SARS-CoV-2 viral infection assay in Huh-7.5 cells; assay type: cell-based, SARS-CoV-2 (strain: USA-WA1/2020); conditions: n = 3
[1] = Cytotoxicity in Huh-7.5 cells; assay type: cell-based, Homo sapiens; conditions: human, n = 3
Huh-7.5 cells = test: Cytotoxicity in Huh-7.5 cells; assay type: cell-based, Homo sapiens; conditions: at ≤ 3 μM compound
human RNMT-RAM complex = human RNMT-RAM complex (Homo sapiens, UniProt O43148); test: Biochemical activity assay for the human RNMT-RAM complex (MTase-Glo); conditions: for Emax: read-out: hRNMT-RAM inhibition: Maximum response; for hRNMT-RAM inhibition: Hill slope: fit of concentration-response curve
human RNMT-RAM complex, sequence (O43148 whole entry): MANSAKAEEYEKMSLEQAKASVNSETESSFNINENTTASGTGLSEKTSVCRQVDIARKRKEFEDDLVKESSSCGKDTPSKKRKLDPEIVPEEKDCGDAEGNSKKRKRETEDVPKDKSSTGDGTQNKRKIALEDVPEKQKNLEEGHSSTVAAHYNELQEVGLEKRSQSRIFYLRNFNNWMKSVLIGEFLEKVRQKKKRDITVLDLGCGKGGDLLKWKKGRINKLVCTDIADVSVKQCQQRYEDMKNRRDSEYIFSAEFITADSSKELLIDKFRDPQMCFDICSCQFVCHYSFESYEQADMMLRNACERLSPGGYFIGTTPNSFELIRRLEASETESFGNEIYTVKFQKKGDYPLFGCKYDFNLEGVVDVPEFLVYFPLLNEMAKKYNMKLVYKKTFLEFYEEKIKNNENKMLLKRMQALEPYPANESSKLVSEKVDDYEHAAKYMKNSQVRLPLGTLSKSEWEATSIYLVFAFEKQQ
human RNMT-RAM complex, sequence (Q9BTL3 whole entry partner): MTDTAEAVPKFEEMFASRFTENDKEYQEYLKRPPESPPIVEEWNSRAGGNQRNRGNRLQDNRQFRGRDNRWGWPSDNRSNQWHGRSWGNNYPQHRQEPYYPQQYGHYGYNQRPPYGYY

ZIKV NS5 = ZIKV NS5 (Zika virus, UniProt Q32ZE1); test: Biochemical activity assay for ZIKV NS5 MTase (MTase-Glo); conditions: for Emax: 0.75 h, read-out: ZIKV NS5 inhibition: Maximum measured; for ZIKV NS5 inhibition: Hill slope: fit of concentration-response curve
ZIKV NS5, sequence (Q32ZE1 2517-2781): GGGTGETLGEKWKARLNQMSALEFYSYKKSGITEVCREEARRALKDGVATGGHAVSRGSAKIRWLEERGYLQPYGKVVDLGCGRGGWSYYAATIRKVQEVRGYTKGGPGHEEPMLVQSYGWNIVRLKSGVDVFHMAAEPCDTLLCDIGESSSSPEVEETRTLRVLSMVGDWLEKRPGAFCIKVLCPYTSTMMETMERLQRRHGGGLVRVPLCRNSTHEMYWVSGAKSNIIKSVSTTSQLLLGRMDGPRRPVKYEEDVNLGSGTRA
Description: final concentration, lab stock) during dialysis at 4 °C overnight against a buffer containing 50 mM Tris-HCl, pH 7.5, 20 mM imidazole, 500 mM NaCl, and 1 mM dithiothreitol (DTT). To remove the His6-SUMO tag, the protein sample was mixed with cOmplete His-Tag purification resin (Roche), incubated for 2 h at 4 °C, and loaded onto a gravity flow column. Since the His6-SUMO tag bound to the column material, the flow-through was collected containing untagged target protein. The target protein was further purified by a Superdex200 10/300 gel filtration column (GE Healthcare) in buffer (20 mM Tris-HCl, pH 7.5, 500 mM NaCl, 1 mM DTT). Fractions were analyzed by SDS-PAGE and Coomassie staining. Protein-containing fractions were pooled, flash-frozen in liquid nitrogen, and stored at -80 °C. […]
in 1X NSP14 reaction buffer (50 mM Tris-HCl, pH 7.5, 6 mM KCl, 1.25 mM MgCl2, 1 mM DTT, and 0.01% Tween-20) in a total reaction volume of 16 µl in absence or presence of increasing inhibitor compound concentrations for 45 min at 37 °C. SAH production was monitored using the bioluminescence-based MTase-Glo™ Methyltransferase Assay kit (Promega) following manufacturer’s instructions. The luminescence signal of each reaction was recorded in relative light units (RLUs) using a Synergy Neo plate reader (BioTek, Winooski, VT). […] IC50 values (mean from at least 3 independent experiments) were calculated using the GraphPad Prism software (Version 10.1.1) and a four-parameter logistic regression.
Biochemical activity assays for the human RNMT-RAM complex and ZIKV NS5 MTases Activity assays were performed in 1x NSP14 reaction buffer. For hRNMT-RAM, we used 15 nM enzyme, 2.5 µM GpppG and 2 µM SAM. For ZIKV NS5, we used 25 nM enzyme, 3 µM […]
Gppp[…]3, and 5 µM SAM. The enzymatic reaction was initiated with the addition of the enzyme in assay buffer and incubated at RT or 37 °C for 45 min, respectively. SAH was detected using the MTase-Glo™ assay.
Differential scanning fluorimetry (DSF)

[2] = SAH counterscreen inhibition (counterscreen of the MTase-Glo luminescence readout); conditions: for SAH counterscreen inhibition: Maximum response / IC50: LUM % inhibition; for SAH counterscreen inhibition: Hill slope: fit of concentration-response curve; for IC50: read-out: SAH counterscreen inhibition: IC50
[3] = LUM % inhibition, read-out: hRNMT-RAM inhibition: IC50

Compound: Cc1cc(S(=O)(=O)c2cc(C(=O)NCc3c(F)ccc4cnn(C5CC5)c34)n(C)c2C)cc2cn[nH]c12 [TDI-016037]
- EC50 (SARS-CoV-2; Huh-7.5 cells, read-out: Anti-SARS-CoV-2 activity EC50): 0.008 µM
- EC50 (SARS-CoV-2; Severe acute respiratory syndrome coronavirus 2, Huh7.5, read-out: Anti-SARS-CoV-2 activity EC50, Huh-7.5 cells): 0.0086 µM
- CC50 [1]: ≥ 3 µM
- Cytotoxicity (Huh-7.5 cells): no cytotoxicity was detected

Compound: Nc1ncnc2c1ncn2C1OC(CC(N)CCC(N)C(=O)O)C(O)C1O (stereo not shown) [RU-0425548]
- IC50 (human RNMT-RAM complex): 0.00596 µM
- Emax (human RNMT-RAM complex; LUM % inhibition): 102%
- hRNMT-RAM inhibition: Hill slope (human RNMT-RAM complex): 0.881
- Emax (ZIKV NS5; LUM % inhibition): 109%
- IC50 (ZIKV NS5; LUM % inhibition): 0.21 µM
- ZIKV NS5 inhibition: Hill slope (ZIKV NS5): 0.774
- SAH counterscreen inhibition: Maximum response [2]: 8.34%
- SAH counterscreen inhibition: Hill slope [2]: 7.74
- IC50 [2]: > 62.5 µM

Compound: Cc1ccc(NC(=O)Cn2nnc3ccccc3c2=O)cc1S(=O)(=O)N1CCCCC1 [RU-0833928, S(=O)(=O)(N1CCCCC1)c1c(C)ccc(NC(=O)CN2N=Nc3c(cccc3)C2=O)c1]
- IC50 (human RNMT-RAM complex; [3]): > 250 µM
- hRNMT-RAM inhibition: Hill slope (human RNMT-RAM complex): 0.501
- Emax (human RNMT-RAM complex): 8.18%
- Emax (ZIKV NS5; LUM % inhibition): 9.49%
- IC50 (ZIKV NS5; LUM % inhibition): > 250 µM
- ZIKV NS5 inhibition: Hill slope (ZIKV NS5): -7.54
- SAH counterscreen inhibition: Maximum response [2]: 21.6%
- SAH counterscreen inhibition: Hill slope [2]: -3.01
- IC50 [2]: > 125 µM

Compound: C[C@@H](NC(=O)c1ccc(CNC(=O)c2ccc3[nH]ncc3c2)cc1)c1cccc(O)c1 [RU-0834179, C[C@@H](NC(=O)C1=CC=C(CNC(=O)C2=CC=C3NN=CC3=C2)C=C1)C1=CC(O)=CC=C1]
- IC50 (human RNMT-RAM complex; [3]): > 250 µM
- hRNMT-RAM inhibition: Hill slope (human RNMT-RAM complex): 0.0614
- Emax (human RNMT-RAM complex): 6.78%
- Emax (ZIKV NS5; LUM % inhibition): 12.5%
- IC50 (ZIKV NS5; LUM % inhibition): > 250 µM
- ZIKV NS5 inhibition: Hill slope (ZIKV NS5): 1.12
- SAH counterscreen inhibition: Maximum response [2]: 14.4%
- SAH counterscreen inhibition: Hill slope [2]: 11.5
- IC50 [2]: > 125 µM

Compound: COc1ccc(-c2ocnc2C(=O)Nc2ccc3oc(=O)n(CC(=O)N4CCCCC4)c3c2)cc1 [RU-0833661, COC1=CC=C(C2=C(C(=O)NC3=CC=C4OC(=O)N(CC(=O)N5CCCCC5)C4=C3)N=CO2)C=C1]
- IC50 (human RNMT-RAM complex; [3]): > 125 µM
- hRNMT-RAM inhibition: Hill slope (human RNMT-RAM complex): 5.03
- Emax (human RNMT-RAM complex): 36.6%
- Emax (ZIKV NS5; LUM % inhibition): 66.6%
- ZIKV NS5 inhibition: Hill slope (ZIKV NS5): 1.01
- IC50 (ZIKV NS5; selectivity assay, read-out: ZIKV NS5 inhibition IC50): 73.7 µM
- SAH counterscreen inhibition: Maximum response [2]: 20.6%
- SAH counterscreen inhibition: Hill slope [2]: 0.36
- IC50 [2]: > 125 µM

Compound: Cc1cc(C(=O)NCc2ccc(C(=O)NC(C)c3ccccc3C)nc2)ccc1O (stereo not shown) [RU-0834146, CC1=CC(C(=O)NCC2=CN=C(C(=O)NC(C)C3=C(C)C=CC=C3)C=C2)=CC=C1O]
- IC50 (human RNMT-RAM complex; [3]): > 250 µM
- hRNMT-RAM inhibition: Hill slope (human RNMT-RAM complex): 86
- Emax (human RNMT-RAM complex): 4.85%
- Emax (ZIKV NS5; LUM % inhibition): 11.2%
- IC50 (ZIKV NS5; LUM % inhibition): > 250 µM
- ZIKV NS5 inhibition: Hill slope (ZIKV NS5): 10.6
- SAH counterscreen inhibition: Maximum response [2]: 16.1%
- SAH counterscreen inhibition: Hill slope [2]: -44.2
- IC50 [2]: > 125 µM

Compound: Cc1cnc(C(C)NC(=O)c2ccc(CNC(=O)c3ccc(O)c(C)c3)cn2)nc1 (stereo not shown) [RU-0834184, CC1=CN=C(C(C)NC(=O)C2=NC=C(CNC(=O)C3=CC=C(O)C(C)=C3)C=C2)N=C1]
- IC50 (human RNMT-RAM complex; [3]): > 250 µM
- hRNMT-RAM inhibition: Hill slope (human RNMT-RAM complex): 137
- Emax (human RNMT-RAM complex): 5.53%
- Emax (ZIKV NS5; LUM % inhibition): 12.7%
- IC50 (ZIKV NS5; LUM % inhibition): > 250 µM
- ZIKV NS5 inhibition: Hill slope (ZIKV NS5): 1.19
- SAH counterscreen inhibition: Maximum response [2]: 16.9%
- SAH counterscreen inhibition: Hill slope [2]: 13.5
- IC50 [2]: > 125 µM

Compound: Cc1cc(C)c(C(=O)NCc2ccc(CNC(=O)c3ccc(O)c(C)c3)cc2)cn1 [RU-0834181, CC1=CC(C(=O)NCC2=CC=C(CNC(=O)C3=CN=C(C)C=C3C)C=C2)=CC=C1O]
- IC50 (human RNMT-RAM complex; [3]): > 250 µM
- hRNMT-RAM inhibition: Hill slope (human RNMT-RAM complex): 0.346
- Emax (human RNMT-RAM complex): 20.8%
- Emax (ZIKV NS5; LUM % inhibition): 14.9%
- IC50 (ZIKV NS5; LUM % inhibition): > 250 µM
- ZIKV NS5 inhibition: Hill slope (ZIKV NS5): 0.143
- SAH counterscreen inhibition: Maximum response [2]: 12.2%
- SAH counterscreen inhibition: Hill slope [2]: 63.6
- IC50 [2]: > 125 µM
